Experimental data as given in ChEMBL document CHEMBL1909046, “DrugMatrix in vitro pharmacology data”.

Tests used:
[1] = biological target: Protein phosphatase 3 catalytic subunit alpha (Homo sapiens, UniProt Q08209); design: species or system Escherichia coli;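 also: inhibition of calcineurin (PP2B) enzyme activity, measured with DiFMUP as the substrate; in other assays of this panel Not Active means under 50% inhibition at 10 µM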
[2] = biological target: T1, Alpha-2A adrenergic receptor (Homo sapiens, UniProt P08913); assay type: cell membranes, Sf9, Membrane; also: in other assays of this panel Not Active means under 50% inhibition at 10 µM
T1 sequence (P08913 whole entry): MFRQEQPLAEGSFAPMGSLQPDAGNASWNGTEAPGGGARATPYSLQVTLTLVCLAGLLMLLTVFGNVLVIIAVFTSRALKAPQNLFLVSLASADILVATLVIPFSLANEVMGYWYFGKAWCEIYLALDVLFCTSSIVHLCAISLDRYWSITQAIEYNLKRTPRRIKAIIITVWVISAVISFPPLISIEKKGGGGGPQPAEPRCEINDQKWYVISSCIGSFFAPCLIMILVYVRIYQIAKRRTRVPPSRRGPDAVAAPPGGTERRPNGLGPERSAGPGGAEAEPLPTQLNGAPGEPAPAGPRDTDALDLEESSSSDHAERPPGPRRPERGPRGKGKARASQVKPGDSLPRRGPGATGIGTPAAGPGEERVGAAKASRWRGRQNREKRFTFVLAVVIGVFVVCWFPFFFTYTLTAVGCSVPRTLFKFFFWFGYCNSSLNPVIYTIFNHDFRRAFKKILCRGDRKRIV

Endothelin-1 receptor = biological target: T2, Endothelin-1 receptor (Homo sapiens, UniProt P25101); assay type: cell membranes, CHO-K1, Membrane; also: in other assays of this panel Not Active means under 50% inhibition at 10 µM
T2 sequence (P25101 whole entry): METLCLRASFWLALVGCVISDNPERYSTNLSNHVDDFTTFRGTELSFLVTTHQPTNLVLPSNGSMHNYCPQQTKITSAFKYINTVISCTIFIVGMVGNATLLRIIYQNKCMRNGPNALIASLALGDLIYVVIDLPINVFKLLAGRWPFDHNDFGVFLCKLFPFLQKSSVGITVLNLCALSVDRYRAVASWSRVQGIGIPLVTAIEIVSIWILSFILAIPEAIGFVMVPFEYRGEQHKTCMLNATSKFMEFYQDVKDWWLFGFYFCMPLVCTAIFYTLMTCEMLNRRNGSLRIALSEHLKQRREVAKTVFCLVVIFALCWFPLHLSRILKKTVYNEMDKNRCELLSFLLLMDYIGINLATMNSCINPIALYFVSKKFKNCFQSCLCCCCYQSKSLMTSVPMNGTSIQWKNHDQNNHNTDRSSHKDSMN

Carbonic anhydrase 2 = Carbonic anhydrase 2 (Homo sapiens, UniProt P00918); assay: DRUGMATRIX: Carbonic Anhydrase II enzyme inhibition (substrate: 4-Nitrophenyl acetate (4-NPA)); assay type: tissue-based, Erythrocyte; details: erythrocyte; Not Active = under 50% inhibition at 10 µM
Cannabinoid receptor 1 = Cannabinoid receptor 1 (Homo sapiens, UniProt P21554); assay type: cell membranes, Membrane; details: chem-1; also: in other assays of this panel Not Active means under 50% inhibition at 10 µM
[3] = biological target: Kappa-type opioid receptor (Homo sapiens, UniProt P41145); assay: DRUGMATRIX: Opiate kappa (OP2, KOP) radioligand binding (ligand: [3H] Diprenorphine); assay type: cell membranes, HEK293, Membrane; details: hek293; Not Active = under 50% inhibition at 10 µM
Chain of Kappa-type opioid receptor (P41145 whole entry): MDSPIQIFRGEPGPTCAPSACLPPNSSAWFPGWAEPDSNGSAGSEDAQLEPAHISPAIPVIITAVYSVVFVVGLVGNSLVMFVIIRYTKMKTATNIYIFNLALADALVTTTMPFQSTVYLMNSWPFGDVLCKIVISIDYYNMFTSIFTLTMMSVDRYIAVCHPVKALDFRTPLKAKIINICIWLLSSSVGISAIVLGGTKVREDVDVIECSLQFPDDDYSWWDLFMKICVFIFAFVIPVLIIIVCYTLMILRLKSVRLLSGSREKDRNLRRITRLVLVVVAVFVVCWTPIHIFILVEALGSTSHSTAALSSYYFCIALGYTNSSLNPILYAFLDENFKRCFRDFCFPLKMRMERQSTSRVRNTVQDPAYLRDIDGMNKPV

Chain of Cannabinoid receptor 1 (P21554 whole entry): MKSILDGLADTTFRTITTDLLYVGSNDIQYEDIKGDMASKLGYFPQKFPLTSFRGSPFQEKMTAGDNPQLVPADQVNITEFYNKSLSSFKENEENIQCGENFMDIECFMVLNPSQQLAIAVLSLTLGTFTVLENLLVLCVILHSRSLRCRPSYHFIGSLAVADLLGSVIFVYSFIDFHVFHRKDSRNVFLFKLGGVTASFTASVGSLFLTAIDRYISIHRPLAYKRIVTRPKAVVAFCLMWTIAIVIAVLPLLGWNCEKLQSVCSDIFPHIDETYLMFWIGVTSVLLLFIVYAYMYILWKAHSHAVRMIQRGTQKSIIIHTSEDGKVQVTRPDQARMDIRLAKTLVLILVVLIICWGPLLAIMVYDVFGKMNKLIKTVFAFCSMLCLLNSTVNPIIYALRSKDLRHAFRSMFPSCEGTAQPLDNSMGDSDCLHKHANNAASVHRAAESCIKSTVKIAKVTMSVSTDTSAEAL

Row | Molecule | IC50 [1] | IC50 ([2]; sf9) | IC50 (Endothelin-1 receptor; cho-k1) | IC50 (Carbonic anhydrase 2) | IC50 (Cannabinoid receptor 1) | IC50 ([2]; read-out: IC50) | Ki ([2]; read-out: Ki) | IC50 [3] | IC50 (Endothelin-1 receptor; read-out: IC50) | Ki (Endothelin-1 receptor; read-out: Ki) | Ki [1] | Ki ([2]; sf9) | Ki (Endothelin-1 receptor; cho-k1) | Ki (Carbonic anhydrase 2) | Ki (Cannabinoid receptor 1)
1 | N[C@@H](Cc1ccc(N(CCCl)CCCl)cc1)C(=O)O | Not Active | Not Active | Not Active | Not Active | Not Active |  |  |  |  |  |  |  |  |  | 
2 | CC(C)N1CCN(c2ccc(OCC3COC(Cn4cncn4)(c4ccc(Cl)cc4Cl)O3)cc2)CC1 (configuration not stated) [TERCONAZOLE] | Not Active |  | Not Active | Not Active | Not Active | 0.983 µM | 0.369 µM | Not Active |  |  |  |  |  |  | 
3 | Cc1nc2n(c(=O)c1CCN1CCC(c3noc4cc(F)ccc34)CC1)CCCC2 [RISPERIDONE] | Not Active |  | Not Active | Not Active | Not Active |  |  | Not Active |  |  |  |  |  |  | 
4 | N[C@@H]1[C@H]2CN(c3nc4c(cc3F)c(=O)c(C(=O)O)cn4-c3ccc(F)cc3F)C[C@@H]12 [TROVAFLOXACIN] | Not Active | Not Active | Not Active | Not Active | Not Active |  |  | Not Active |  |  |  |  |  |  | 
5 | O=c1ncn2nc(Sc3ccc(F)cc3F)ccc2c1-c1c(Cl)cccc1Cl [NEFLAMAPIMOD] | Not Active |  | Not Active | Not Active | Not Active | 34.2 µM | 12.8 µM | Not Active |  |  |  |  |  |  | 
6 | CCCCc1oc2ccccc2c1C(=O)c1cc(I)c(OCCN(CC)CC)c(I)c1 [AMIODARONE] | Not Active |  |  | Not Active | Not Active |  |  |  | 26.3 µM | 16.2 µM |  |  |  |  | 
7 | CC[C@]1(O)C[C@H]2CN(CCc3c([nH]c4ccccc34)[C@@](C(=O)OC)(c3cc4c(cc3OC)N(C=O)[C@H]3[C@@](O)(C(=O)OC)[C@H](OC(C)=O)[C@]5(CC)C=CCN6CC[C@]43[C@@H]65)C2)C1 [VINCRISTINE] | Not Active | Not Active | Not Active | Not Active | Not Active |  |  | Not Active |  |  |  |  |  |  | 
8 | CO[C@H]1/C=C/O[C@@]2(C)Oc3c(C)c(O)c4c(O)c(c(/C=N/N5CCN(C)CC5)c(O)c4c3C2=O)NC(=O)/C(C)=C\C=C\[C@H](C)[C@H](O)[C@@H](C)[C@@H](O)[C@@H](C)[C@H](OC(C)=O)[C@@H]1C [RIFAMPIN] | Not Active | Not Active | Not Active | Not Active | Not Active |  |  | Not Active |  |  |  |  |  |  | 
9 | Cc1noc(NS(=O)(=O)c2ccc(N)cc2)c1C [SULFISOXAZOLE] | Not Active | Not Active |  | Not Active | Not Active |  |  | Not Active |  |  |  |  |  |  | 
10 | NS(=O)(=O)c1cc2c(cc1Cl)NC(C(Cl)Cl)NS2(=O)=O (configuration not stated) [TRICHLORMETHIAZIDE] | Not Active | Not Active | Not Active | Not Active | Not Active |  |  | Not Active |  |  |  |  |  |  | 
11 | COc1nc(C)nc(Cl)c1NC1=NCCN1 [MOXONIDINE] | Not Active | Not Active | Not Active | Not Active | Not Active |  |  | Not Active |  |  |  |  |  |  | 
12 | Nc1nc2ccc(OC(F)(F)F)cc2s1 [RILUZOLE] | Not Active | Not Active | Not Active | Not Active | Not Active |  |  | Not Active |  |  |  |  |  |  | 
13 | N[C@@H](Cc1cc(I)c(Oc2ccc(O)c(I)c2)c(I)c1)C(=O)O [LIOTHYRONINE] | Not Active | Not Active | Not Active | Not Active | Not Active |  |  | Not Active |  |  |  |  |  |  | 
14 | CN1CCN(CCCN2c3ccccc3Sc3ccc(Cl)cc32)CC1 [PROCHLORPERAZINE] | Not Active |  | Not Active | Not Active | Not Active |  |  | Not Active |  |  |  |  |  |  | 
15 | CC[C@@H](CO)NC(=O)[C@@H]1C=C2c3cccc4[nH]cc(c34)C[C@H]2N(C)C1 [METHYLERGONOVINE] | Not Active |  | Not Active | Not Active | Not Active | 1.59 µM | 0.596 µM |  |  |  |  |  |  |  | 
16 | SODIUM NITROPRUSSIDE | Not Active | Not Active | Not Active | Not Active | Not Active |  |  |  |  |  | Not Active | Not Active | Not Active | Not Active | Not Active
